Values of other authors, collected in patent US20240122227A1, “AEROSOLIZABLE MATERIAL” (Nicoventures Trading Limited, priority 2019, published 2024).

Target: CB2 receptor compared to the CB1 receptor (Homo sapiens, UniProt P34972)
Details: see Br J Pharmacol. 2001 October; 134(4): 845-852

Sequence of CB2 receptor compared to the CB1 receptor (P34972 whole entry): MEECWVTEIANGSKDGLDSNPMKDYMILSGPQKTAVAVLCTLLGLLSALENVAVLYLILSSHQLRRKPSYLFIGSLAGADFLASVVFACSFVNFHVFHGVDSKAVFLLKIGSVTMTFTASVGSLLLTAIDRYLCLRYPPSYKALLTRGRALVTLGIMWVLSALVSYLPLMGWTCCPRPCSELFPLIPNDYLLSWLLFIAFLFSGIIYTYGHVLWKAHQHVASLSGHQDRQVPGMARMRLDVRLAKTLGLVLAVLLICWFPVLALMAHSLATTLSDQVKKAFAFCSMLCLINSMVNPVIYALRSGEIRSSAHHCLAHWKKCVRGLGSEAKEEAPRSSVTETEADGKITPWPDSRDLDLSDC

## C=C(C)[C@H]1CCC(C)=C[C@@H]1c1c(O)cc(CCCCC)cc1O [(+)-cannabidiol]
  selectivity for the CB2 receptor compared to the CB1 receptor: increased selectivity for the CB2 receptor compared to the CB1 receptor

## C=C(C)[C@@H]1CCC(C)=C[C@H]1c1c(O)cc(CCCCC)cc1O [(−)-cannabidiol]
  selectivity for the CB2 receptor compared to the CB1 receptor: does not show any selectivity between the two receptors
